Tested on: HHV-6 strain 7.29
Assay: Evaluation of PCV against HHV-6 in human cord blood cells (% infected cells by immunofluorescence)
Type: cell-based, human herpesvirus 6
Procedure: An assay method involving the inhibition of a cytopathic effect in human cord blood cells is conducted at a dose range of 0.01 μM-100 μM. The general procedure is as described in Chapter 23 of ‘Human Herpesvirus; Epidemiology, Molecular Biology and Clinical Pathology—Conference Proceedings, Ablashi D. V. (Ed).
^aDilutions of the compounds were added 1 hr after viral inoculation of human cord blood. The % infected cells was measured by anti-complement immunofluorescence (ACIF). All numbers are averages of results of cord blood from 3 donors and triplicate readings were performed on each sample. Each reading represents actual counting of 3 fields.
Human mononuclear cells were isolated from umbilical cord blood and inoculated in triplicate with the test virus. One hour later, duplicate dilutions of the compound were added, resulting in 0, 5, 10, 50, or 100 μM final concentrations. After 3-6 days, cellls were removed and tested for the presence of virus by indirect immunofluorescence (IFA) using type specific monoclonal antibodies. Three fields of 100 cells each were read from each sample.

SMILES: Nc1nc2c(ncn2CCC(CO)CO)c(=O)[nH]1 [PCV, penciclovir]
- inhibition at 5 µM (Human betaherpesvirus 6, 144 h, PCV 5 μM, Day 6, read-out: % Inhib Day 6): -5%
- inhibition at 10 µM (Human betaherpesvirus 6, 144 h, PCV 10 μM, Day 6, read-out: % Inhib Day 6): -7%
- inhibition at 50 µM (Human betaherpesvirus 6, 144 h, PCV 50 μM, Day 6, read-out: % Inhib Day 6): 12%
- inhibition at 100 µM (Human betaherpesvirus 6, 144 h, PCV 100 μM, Day 6, read-out: % Inhib Day 6): 29%
- % Inf Day 4 (PCV 5 μM, Day 4, compound added 1 hr after viral inoculation): 19%
- % Inf Day 6 (PCV 5 μM): 42%
- % Inf Day 4 (PCV 10 μM, Day 4): 20%
- % Inf Day 6 (PCV 10 μM): 43%
- % Inf Day 6 (PCV 50 μM): 35%
- % Inf Day 6 (PCV 100 μM): 38%

Reference: patent publication US6683084B1, “Use of 2-amino purine derivatives for the treatment and prophylaxis of human herpes virus 6 infections” (Novartis International Pharmaceutical Ltd., priority 1993, dated 2004)
